Reference: ChEMBL document CHEMBL1142146, “Quinupristin-dalfopristin nonsusceptibility in pneumococci from sickle cell disease patients” (2007)
≈ marks a conversion by molar mass, not a printed value.

Legend:
Type in all cases: functional
Streptococcus pneumoniae [1] = assay: Antibacterial activity against Pneumococcus DAW14 isolated from sickle cell disease patient
Streptococcus pneumoniae [2] = assay: Antibacterial activity against Pneumococcus DAW61 isolated from sickle cell disease patient
Streptococcus pneumoniae [3] = assay: Antibacterial activity against Pneumococcus DAW86 isolated from sickle cell disease patient
Streptococcus pneumoniae [4] = assay: Antibacterial activity against Pneumococcus DAW67 isolated from sickle cell disease patient
Streptococcus pneumoniae [5] = assay: Antibacterial activity against Pneumococcus DAW65 isolated from sickle cell disease patient
Streptococcus pneumoniae [6] = assay: Antibacterial activity against Pneumococcus CDC068 isolated from sickle cell disease patient
Streptococcus pneumoniae [7] = assay: Antibacterial activity against Pneumococcus DAW9 isolated from sickle cell disease patient
Streptococcus pneumoniae [8] = assay: Antibacterial activity against Pneumococcus DAW2 isolated from sickle cell disease patient
Streptococcus pneumoniae [9] = assay: Antibacterial activity against Pneumococcus DAW6 isolated from sickle cell disease patient
Streptococcus pneumoniae [10] = assay: Antibacterial activity against Pneumococcus DAW66 isolated from sickle cell disease patient
Streptococcus pneumoniae [11] = assay: Antibacterial activity against Pneumococcus CDC063 isolated from sickle cell disease patient
Streptococcus pneumoniae [12] = assay: Antibacterial activity against Pneumococcus DAW26 isolated from sickle cell disease patient
Streptococcus pneumoniae [13] = assay: Antibacterial activity against Pneumococcus DAW57 isolated from sickle cell disease patient
Streptococcus pneumoniae [14] = assay: Antibacterial activity against Pneumococcus CDC013 isolated from sickle cell disease patient
Streptococcus pneumoniae [15] = assay: Antibacterial activity against Pneumococcus DAW27 isolated from sickle cell disease patient
Streptococcus pneumoniae [16] = assay: Antibacterial activity against Pneumococcus CDC050 isolated from sickle cell disease patient
Streptococcus pneumoniae [17] = assay: Antibacterial activity against Pneumococcus DAW53 isolated from sickle cell disease patient
Streptococcus pneumoniae [18] = assay: Antibacterial activity against Pneumococcus DAW8 isolated from sickle cell disease patient
Streptococcus pneumoniae [19] = assay: Antibacterial activity against Pneumococcus DAW19 isolated from sickle cell disease patient
Streptococcus pneumoniae [20] = assay: Antibacterial activity against Pneumococcus CDC020 isolated from sickle cell disease patient
Streptococcus pneumoniae [21] = assay: Antibacterial activity against Pneumococcus DAW51 isolated from sickle cell disease patient
Streptococcus pneumoniae [22] = assay: Antibacterial activity against Pneumococcus DAW70 isolated from sickle cell disease patient
Streptococcus pneumoniae [23] = assay: Antibacterial activity against Pneumococcus CDC023 isolated from sickle cell disease patient
Streptococcus pneumoniae [24] = assay: Antibacterial activity against Pneumococcus DAW22 isolated from sickle cell disease patient
Streptococcus pneumoniae [25] = assay: Antibacterial activity against Pneumococcus DAW12 isolated from sickle cell disease patient
Streptococcus pneumoniae [26] = assay: Antibacterial activity against Pneumococcus DAW13 isolated from sickle cell disease patient
Streptococcus pneumoniae [27] = assay: Antibacterial activity against Pneumococcus DAW75 isolated from sickle cell disease patient
Streptococcus pneumoniae [28] = assay: Antibacterial activity against Pneumococcus DAW68 isolated from sickle cell disease patient
Streptococcus pneumoniae [29] = assay: Antibacterial activity against Pneumococcus CDC001 isolated from sickle cell disease patient
Streptococcus pneumoniae [30] = assay: Antibacterial activity against Pneumococcus DAW62 isolated from sickle cell disease patient
Streptococcus pneumoniae [31] = assay: Antibacterial activity against Pneumococcus DAW24 isolated from sickle cell disease patient
Streptococcus pneumoniae [32] = assay: Antibacterial activity against Pneumococcus CDC018 isolated from sickle cell disease patient
Streptococcus pneumoniae [33] = assay: Antibacterial activity against Pneumococcus DAW15 isolated from sickle cell disease patient

Row | Compound | MIC (Streptococcus pneumoniae [1]) | MIC (Streptococcus pneumoniae [2]) | MIC (Streptococcus pneumoniae [3]) | MIC (Streptococcus pneumoniae [5]) | MIC (Streptococcus pneumoniae [6]) | MIC (Streptococcus pneumoniae [7]) | MIC (Streptococcus pneumoniae [8]) | MIC (Streptococcus pneumoniae [9]) | MIC (Streptococcus pneumoniae [10]) | MIC (Streptococcus pneumoniae [11]) | MIC (Streptococcus pneumoniae [12]) | MIC (Streptococcus pneumoniae [13]) | MIC (Streptococcus pneumoniae [15]) | MIC (Streptococcus pneumoniae [16]) | MIC (Streptococcus pneumoniae [17]) | MIC (Streptococcus pneumoniae [18]) | MIC (Streptococcus pneumoniae [19]) | MIC (Streptococcus pneumoniae [21]) | MIC (Streptococcus pneumoniae [22]) | MIC (Streptococcus pneumoniae [23]) | also measured
1 | CC[C@H]1OC(=O)[C@H](C)[C@@H](O[C@H]2C[C@@](C)(OC)[C@@H](O)[C@H](C)O2)[C@H](C)[C@@H](O[C@@H]2O[C@H](C)C[C@H](N(C)C)[C@H]2O)[C@](C)(O)C[C@@H](C)C(=O)[C@H](C)[C@@H](O)[C@]1(C)O [ERYTHROMYCIN] | 0.19 µg/mL (≈ 0.259 µM) | 256 µg/mL (≈ 349 µM) | 0.19 µg/mL (≈ 0.259 µM) | 0.19 µg/mL (≈ 0.259 µM) | 0.19 µg/mL (≈ 0.259 µM) | 256 µg/mL (≈ 349 µM) | 0.125 µg/mL (≈ 0.17 µM) | 0.25 µg/mL (≈ 0.341 µM) | 0.19 µg/mL (≈ 0.259 µM) | 32 µg/mL (≈ 43.6 µM) | 0.125 µg/mL (≈ 0.17 µM) | 256 µg/mL (≈ 349 µM) | 256 µg/mL (≈ 349 µM) | 0.25 µg/mL (≈ 0.341 µM) | 0.25 µg/mL (≈ 0.341 µM) | 0.125 µg/mL (≈ 0.17 µM) | 24 µg/mL (≈ 32.7 µM) | 0.19 µg/mL (≈ 0.259 µM) | 0.19 µg/mL (≈ 0.259 µM) | 0.125 µg/mL (≈ 0.17 µM) | MIC (Streptococcus pneumoniae [4]): 0.125 µg/mL (≈ 0.17 µM); MIC (Streptococcus pneumoniae [14]): 0.125 µg/mL (≈ 0.17 µM); MIC (Streptococcus pneumoniae [20]): 256 µg/mL (≈ 349 µM); MIC (Streptococcus pneumoniae [24]): 256 µg/mL (≈ 349 µM); MIC (Streptococcus pneumoniae [25]): 0.19 µg/mL (≈ 0.259 µM); MIC (Streptococcus pneumoniae [26]): 4 µg/mL (≈ 5.45 µM); MIC (Streptococcus pneumoniae [27]): 0.19 µg/mL (≈ 0.259 µM); MIC (Streptococcus pneumoniae [28]): 0.125 µg/mL (≈ 0.17 µM); MIC (Streptococcus pneumoniae [29]): 0.19 µg/mL (≈ 0.259 µM); MIC (Streptococcus pneumoniae [30]): 0.125 µg/mL (≈ 0.17 µM); MIC (Streptococcus pneumoniae [31]): 0.125 µg/mL (≈ 0.17 µM); MIC (Streptococcus pneumoniae [32]): 256 µg/mL (≈ 349 µM); MIC (Streptococcus pneumoniae [33]): 0.19 µg/mL (≈ 0.259 µM)
2 | CCC[C@@H]1C[C@@H](C(=O)N[C@@H]([C@H]2O[C@H](SC)[C@H](O)[C@@H](O)[C@H]2O)[C@H](C)Cl)N(C)C1 [CLINDAMYCIN] | 0.25 µg/mL (≈ 0.588 µM) | 0.5 µg/mL (≈ 1.18 µM) | 0.25 µg/mL (≈ 0.588 µM) | 0.25 µg/mL (≈ 0.588 µM) | 0.25 µg/mL (≈ 0.588 µM) | 256 µg/mL (≈ 602 µM) | 0.25 µg/mL (≈ 0.588 µM) | 0.038 µg/mL (≈ 0.0894 µM) | 0.25 µg/mL (≈ 0.588 µM) | 0.25 µg/mL (≈ 0.588 µM) | 0.25 µg/mL (≈ 0.588 µM) | 256 µg/mL (≈ 602 µM) | 256 µg/mL (≈ 602 µM) | 0.25 µg/mL (≈ 0.588 µM) | 0.25 µg/mL (≈ 0.588 µM) | 0.25 µg/mL (≈ 0.588 µM) | 0.19 µg/mL (≈ 0.447 µM) | 0.25 µg/mL (≈ 0.588 µM) | 0.38 µg/mL (≈ 0.894 µM) | 0.125 µg/mL (≈ 0.294 µM) | MIC (Streptococcus pneumoniae [24]): 256 µg/mL (≈ 602 µM); MIC (Streptococcus pneumoniae [25]): 0.25 µg/mL (≈ 0.588 µM); MIC (Streptococcus pneumoniae [26]): 0.25 µg/mL (≈ 0.588 µM); MIC (Streptococcus pneumoniae [27]): 0.125 µg/mL (≈ 0.294 µM); MIC (Streptococcus pneumoniae [29]): 0.19 µg/mL (≈ 0.447 µM); MIC (Streptococcus pneumoniae [31]): 0.25 µg/mL (≈ 0.588 µM); MIC (Streptococcus pneumoniae [32]): 256 µg/mL (≈ 602 µM); MIC (Streptococcus pneumoniae [33]): 0.38 µg/mL (≈ 0.894 µM)
